Values of other authors as cited in patent US6555712B2, “Process for the preparation of diorganotrisulfide” (Indian Institute of Technology, priority 2001, dated 2003).
Read-outs that look alike come from different tables or passages of the source.

What was measured:
[1] = system: tumor derived immunosuppressive factors produced by S180 cells and Ehrlich ascitic cancer cells
[2] = system: intracellular Ca2+ in A549 cells
[3] = system: Trypanosoma brucei brucei, T.b. rhodesiense, T.b. gambiense, T. evansi, T. congolense and T. equiperdum; settings: in vitro; one range for six Trypanosoma species
[4] = system: human neoplastic (A549) lung cells; settings: 10 micromolar
[5] = system: whole blood platelet-aggregation; settings: DATS present in the steam-distilled component of garlic extract
[6] = system: Sitophilus zeamais (Motschulsky)
macrophages [7] = settings: 1-100 micrograms/ml
[8] = system: MASEF, Mastomys natalensis embryo fibroblast; settings: MASEF cell line, in vitro
[9] = system: human nonneoplastic (MRC-5) lung cells; settings: 10 microM
[10] = system: canine mammary tumor cells (CMT-13)
[11] = system: cultured human neoplastic (A549) lung cells; settings: 1 microM for 24 hours
[12] = system: HEFL-12, human embryo fibroblast; settings: HEFL-12 cell line, in vitro
[13] = system: Tribolium castaneum (Herbst); set-up: egg hatching: dose or concentration left out as unconfirmed
Giardia Lamblia = settings: in vitro
Entamoeba histolytica = settings: in vitro
macrophages [14] = system: macrophages

## C=CCSSSCC=C [DATS, Diallyltrisulfide]
T lymphocytes; 3.125-12.5 micrograms/ml
  effect on activation of T lymphocytes by Con A: augmented
T lymphocytes; high concentration (50 micrograms/ml)
  effect on T cell activation: inhibitory effect
[1]
  inhibition by tumor derived immunosuppressive factors of the activation of T cells (inhibitory rate): reduce the inhibitory rate significantly
[2]; 10 microM, during the first four hours after treatment
  intracellular Ca2+ in A549 cells: marked and progressive increase
[2]; after refeeding medium without DATS
  intracellular Ca2+ in A549 cells after refeeding the medium without DATS: returned to near control levels within one hour
[3]
  IC50 (concentration which inhibits metabolism or growth of parasites by 50%): 0.8-5.5 micrograms/ml
[4]
  reduction of A549 growth: 47%
[5]
  Inhibition of whole blood platelet-aggregation: high
[6]; S. zeamais adults, 2.98 mg/g food
  feeding deterrence index: 27%
[6]; S. zeamais adults, comparison with methylallyl disulfide
  contact and fumigant toxicities: greater than that of methylallyl disulfide
[6]; all of the insects tested (S. zeamais)
  nutritional indices: significantly reduced
Macrophages [7]
  production of NO by macrophages: can inhibit
[8]
  maximum tolerated concentration: 25 micrograms/ml
[9]
  MRC-5 cell growth: did not alter
[10]
  growth of canine mammary tumor cells (CMT-13): markedly inhibits
[11]
  apoptosis, as indicated by increased DNA fragmentation: significantly induced apoptosis
[12]
  maximum tolerated concentration: 25 micrograms/ml
[13]; T. castaneum
  egg hatching: totally suppressed
[13]; T. castaneum adults, 0.75 mg/g food
  feeding deterrence: 85%
[13]; T. castaneum adults, comparison with methylallyl disulfide
  contact and fumigant toxicities: greater than that of methylallyl disulfide
[13]; T. castaneum larvae, 2.98 mg/g food
  feeding deterrence index: 51%
[13]; T. castaneum, at 0.08 mg/cm2
  larval and adult emergence: totally suppressed
[13]; all of the insects tested (T. castaneum)
  nutritional indices: significantly reduced
Giardia Lamblia
  IC50 (concentration which inhibits metabolism or growth of parasites by 50%): 14 micrograms/ml
Entamoeba histolytica
  IC50 (concentration which inhibits metabolism or growth of parasites by 50%): 59 micrograms/ml
Macrophages [14]
  production of hydrogen peroxide (H2O2) by macrophages: enhance

## C=CCSSC [Methylallyl disulfide, methylallyl disulfide, reference compound]
[6]; S. zeamais adults
  growth rate, food consumption, and food utilization of adults: significantly decreased
[6]; S. zeamais adults, 6.08 mg/g food
  feeding deterrence index: 44%
[13]; T. castaneum adults
  growth rate, food consumption, and food utilization of adults: significantly decreased
[13]; T. castaneum adults, 1.52 mg/g food
  feeding deterrence index: 44%
[13]; T. castaneum larvae
  nutritional indices of T. castaneum larvae: did not affect
